Reference: US9713606B2, “Methods for treating pulmonary emphysema using substituted 2-Aza-bicyclo[2.2.1]heptane-3-carboxylic acid (benzyl-cyano-methyl)-amides inhibitors of cathepsin C” (Boehringer Ingelheim International GmbH, priority 2013, dated 2017)
Read-outs that look alike come from different tables or passages of the source.

Legend:
[1] = Determination of metabolic stability with human liver microsomes; type: in vitro ADME; conditions: pooled human liver microsomes, 1 mg/ml protein, 1 μM test compound, 37° C.; for half-life at 1 μM: pH 7.6, read-out: In vitro stability in human liver microsome incubations t½
Text: Determination of Metabolic Stability with Human Liver Microsomes

[2] = biological target: recombinant human Cathepsin K (Homo sapiens (Human), UniProt P43235); test: Inhibition of human Cathepsin K; type: biochemical; conditions: substrate Z-Gly-Pro-Arg-AMC
recombinant human Cathepsin K, sequence (P43235 115-329): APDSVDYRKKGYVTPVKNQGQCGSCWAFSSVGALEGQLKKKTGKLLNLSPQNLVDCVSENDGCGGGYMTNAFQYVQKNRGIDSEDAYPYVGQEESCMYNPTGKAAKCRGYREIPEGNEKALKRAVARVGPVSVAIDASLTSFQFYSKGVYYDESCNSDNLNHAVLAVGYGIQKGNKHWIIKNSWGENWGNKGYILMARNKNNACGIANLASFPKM
Text: Inhibition of Human Cathepsin K
Materials: Microtiterplates (Optiplate-384 F were purchased from PerkinElmer (Prod. No. 6007270). The substrate Z-Gly-Pro-Arg-AMC was from Biomol (Prod.-No. P-142). L-Cysteine (Prod. No. 168149) was from Sigma. Sodium acetate was from Merck (Prod.-No. 6268.0250), EDTA was from Fluka (Prod.-No. 03680). The inhibitor E-64 was purchased from Sigma (Prod.-No. E3132). The recombinant human Cathepsin K proenzyme was purchased from Biomol (Prod. No. SE-367). All other materials were of highest grade commercially available. […]
5 μL test compound (final concentration 0.1 nM to 100 μM) in aqua bidest (containing 4% DMSO, final DMSO concentration 1%) were mixed with 10 uL of Cathepsin K in assay buffer (final concentration 2 ng/μL) and incubated for 10 min. […] The fluorescence in the wells was determined using a Molecular Devices SpectraMax M5 Fluorescence Reader (Ex 360 nm, Em 460 nm).
Each assay microtiter plate contains wells with vehicle controls (1% DMSO in bidest) as reference for non-inhibited enzyme activity (100% Ctl; high values) and wells with inhibitor (E64 in bidest+1% DMSO, final concentration 1 μM) as controls for background fluorescence (0% Ctl; low values). […]

[3] = test system: neutrophil elastase activity in U937 cells; test: Determination of neutrophil elastase activity in U937 cytosolic lysate preparation after incubation with test compound; type: cell-based, human
Method: Determination of Neutrophil Elastase Activity in U937 Cytosolic Lysate Preparation after Incubation with Test Compound Materials:
Optiplate 384F were purchased from PerkinElmer (Prod. No. #6007270). 24 well Nunclon cell culture plates (No. 142475) and 96 well plates (No. 267245) were from Nunc. Dimethylsulfoxid (DMSO) was from Sigma (Prod. No. D8418). Nonidet-P40 (NP40) was from USBiological (Prod. No. N3500)
Substrate, specific for Neutrophil elastase, was from Bachem (MeOSuc-Ala-Ala-Pro-Val-AMC; Prod. No. I-1270).
Human neutrophil elastase was from Calbiochem (Prod. No. 324681)
Tris-buffer (100 mM Tris; 1M NaCL; pH 7.5)
Tris-buffer+HSA 0.1%; Human Serum Albumin from Calbiochem (Cat#. 126658)
Serine-protease buffer (20 mM Tris; 100 mM NaCL; pH 7.5)+0.1% HSA
Serine protease lysis buffer: 20 mM Tris-HCL; 100 mM NaCl pH 7.5; +0.2% Nonidet-P40;
PBS: phosphate buffered saline, without Ca and Mg, from Gibco
U937 from ECACC (Cat. No. 85011440) cultured in suspension at 37° C. and 5% CO2.
Cell density: 0.2-1 Mio. Cells/ml.
Medium: RPMI1640 GlutaMAX (No. 61870) with 10% FCS from Gibco
Cell Seeding and Treatment:
Compounds in 100% DMSO were diluted in Medium (-FCS) with 10% DMSO and further diluted according to the experiment planned.
20 μl of the compound solution was transferred in the respective wells of the 24 well plate and diluted with 2 ml cell suspension/well containing 1'10^5 cells/ml (final concentration of DMSO=0.1%). Compound dilution factor=100 […]
Frozen lysates were thawn at 37° C. for 10 minutes and stored on ice. Protein content was determined with Bradford protein assay. […]
The increase in fluorescence (Ex360 nm/Em 460 nm) is determined over 30 minutes with a Molecular Device Spectramax M5 Fluorescence Reader. […] The amount of neutrophil elastase (ng/ml) is calculated using the standard curve and the Spectramax software. […] Percent inhibition in the compound-treated lysate samples is calculated relative to the DMSO-treated control-sample (100−(compound-sample*100)/control-sample)
[…] is calculated using Graphpad Prism; nonlinear fitting (log(inhibitor) vs. response—Variable slope).

[4] = biological target: recombinant human DPPI (Cathepsin C) (Homo sapiens (Human), UniProt P53634); test: Inhibition of human DPPI (Cathepsin C); type: biochemical; conditions: substrate Gly-Arg-AMC
recombinant human DPPI (Cathepsin C), sequence (P53634 231-394): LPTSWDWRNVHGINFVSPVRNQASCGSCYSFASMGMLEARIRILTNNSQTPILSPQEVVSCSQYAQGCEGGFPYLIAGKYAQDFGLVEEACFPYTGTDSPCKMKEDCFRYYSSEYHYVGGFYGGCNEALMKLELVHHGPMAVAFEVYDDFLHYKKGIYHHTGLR
recombinant human DPPI (Cathepsin C), sequence (P53634 395-463): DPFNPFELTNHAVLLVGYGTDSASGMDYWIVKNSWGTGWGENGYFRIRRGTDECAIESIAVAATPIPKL
recombinant human DPPI (Cathepsin C), sequence (P53634 25-134): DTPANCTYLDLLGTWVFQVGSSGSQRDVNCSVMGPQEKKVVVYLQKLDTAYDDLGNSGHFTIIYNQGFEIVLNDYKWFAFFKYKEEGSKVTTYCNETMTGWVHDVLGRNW
Method: Inhibition of Human DPPI (Cathepsin C)
Bovine serum albumin (BSA; Prod. No. A3059) and Dithiothreitol (DTT; Prod. No D0632) were from Sigma. […] The DPP1 inhibitor Gly-Phe-DMK was purchased from MP Biomedicals (Prod.-No. 03DK00625). The recombinant human DPPI was purchased from Prozymex. All other materials were of highest grade commercially available.
The following buffers were used: MES buffer: 25 mM MES, 50 mM NaCl, 5 mM DTT, adjusted to pH 6.0, containing 0.1% BSA; TAGZyme Buffer: 20 mM NaH2PO4, 150 mM NaCl adjusted to pH 6.0 with HCl
Then, 5 μL of substrate in MES buffer (final concentration 50 μM) were added. The microtiter plates were then incubated at room temperature for […] Then, the reaction was stopped by adding 10 μL of Gly-Phe-DMK in MES-buffer (final concentration 1 μM).
The analysis of the data was performed by calculating the percentage of fluorescence in the presence of test compound in comparison to the fluorescence of the vehicle control after subtracting the background fluorescence using the following formula: (RFU(sample)−RFU(background))*100/(RFU(control)−RFU(background))
Data from these calculations were used to generate IC50 values for inhibition of DPPI, respectively.

[5] = Homo sapiens, U-937, read-out: Reduction of NE-activity in U937 cells IC50

**Q.** Which “In vitro stability in human liver microsome incubations t½” value (from here on “In vitro stability”) [1] does the source give for `CN1C(=O)Cc2ccc(-c3ccc(CC(C#N)NC(=O)[C@H]4N[C@@H]5CC[C@H]4C5)c(F)c3)cc21` (stereo partly drawn) [Example 15] here?
**A.** 2.17 h

**Q.** Which half-life at 1 μM [1] does the source give for `CN1C(=O)Cc2ccc(-c3cc(F)c(C[C@@H](C#N)NC(=O)[C@H]4N[C@@H]5CC[C@H]4C5)cc3F)cc21` [Example 31] here?
**A.** 1.5 h

**Q.** With `N#CC(Cc1ccc(-c2cnn(-c3ccccc3)c2)cc1F)NC(=O)[C@H]1N[C@@H]2CC[C@H]1C2` (stereo partly drawn) [Example 78] as the compound, how does the “In vitro stability” value [1] read?
**A.** 2.17 h

**Q.** What does the source list for `N#C[C@H](Cc1ccc(N2CCN(CC3CCOC3)CC2)cc1F)NC(=O)[C@H]1N[C@@H]2CC[C@H]1C2` (stereo partly drawn) [Example 154]?
**A.** IC50 [2]: 4600 nM; IC50 [3, 5]: 4.6 nM; IC50 [4]: 13.5 nM; half-life at 1 μM [1]: > 2.17 h

**Q.** Which IC50 ([3]; read-out: Reduction of NE-activity in U937 cells IC50) does the source give for `N#C[C@H](Cc1ccc(-c2ccc(S(=O)(=O)N3CCOCC3)cc2)cc1F)NC(=O)[C@H]1N[C@@H]2CC[C@H]1C2` [Example 217] here?
**A.** 7.5 nM

**Q.** With `CC(C)c1cc(-c2ccc(C[C@@H](C#N)NC(=O)[C@H]3N[C@@H]4CC[C@H]3C4)c(F)c2)ccc1[S+](C)[O-]` (stereo partly drawn) [Example 251] as the compound, how does the IC50 [4] read?
**A.** 11.5 nM

**Q.** For `CS(=O)(=O)c1ccc(-c2ccc(C[C@@H](C#N)NC(=O)[C@H]3N[C@@H]4CC[C@H]3C4)c(F)c2)cc1OCC(F)F` [Example 252], which “In vitro stability” value [1] is on record?
**A.** 2.17 h

**Q.** Which “In vitro stability” value [1] does the source give for `N#C[C@H](Cc1ccc(N2CCCN3CCCC3C2)cc1F)NC(=O)[C@H]1N[C@@H]2CC[C@H]1C2` (stereo partly drawn) [Example 271] here?
**A.** 2.17 h

**Q.** With `CS(=O)(=O)c1cc(OCC(F)(F)F)cc(-c2ccc(C[C@@H](C#N)NC(=O)[C@H]3N[C@@H]4CC[C@H]3C4)c(F)c2)c1` [Example 276] as the compound, how does the “In vitro stability” value [1] read?
**A.** 2.17 h

**Q.** With `CN1CCCN(S(=O)(=O)c2ccc(-c3ccc(C[C@@H](C#N)NC(=O)[C@H]4N[C@@H]5CC[C@H]4C5)c(F)c3)cc2)CC1` [Example 340] as the compound, how does the IC50 [3, 5] read?
**A.** 0.8 nM

**Q.** With `CN1CCC(N2C(=O)Cc3ccc(-c4ccc(C[C@@H](C#N)NC(=O)[C@H]5N[C@@H]6CC[C@H]5C6)c(F)c4)cc32)CC1` [Example 346] as the compound, how does the “In vitro stability” value [1] read?
**A.** >2.17 h

**Q.** With `N#C[C@H](Cc1ccc(N2CC3CCN(C4CCOC4)C3C2)cc1F)NC(=O)[C@H]1N[C@@H]2CC[C@H]1C2` (stereo partly drawn) [Example 348] as the compound, how does the “In vitro stability” value [1] read?
**A.** 2.17 h
